Test results reported in patent US10118922B2 (Janssen Pharmaceutica NV, priority 2013, dated 2018).

What was measured:
[1] = target: T1, long form of human GPR120 (Homo sapiens, UniProt Q5NUL3); assay: Human GPR120 DiscoveRx PathHunter beta-arrestin assay, Procedure β-arrestin A; format: cell-based; settings: PathHunter CHO-K1 GPR120 β-Arrestin cells, 3000 cells per well; read-out: hGPR120 β-arrestin A EC50
T1 construct: host or cells: PathHunter CHO-K1 GPR120 β-Arrestin Cell Line
T1 sequence (Q5NUL3 1-377 isoform Q5NUL3-1): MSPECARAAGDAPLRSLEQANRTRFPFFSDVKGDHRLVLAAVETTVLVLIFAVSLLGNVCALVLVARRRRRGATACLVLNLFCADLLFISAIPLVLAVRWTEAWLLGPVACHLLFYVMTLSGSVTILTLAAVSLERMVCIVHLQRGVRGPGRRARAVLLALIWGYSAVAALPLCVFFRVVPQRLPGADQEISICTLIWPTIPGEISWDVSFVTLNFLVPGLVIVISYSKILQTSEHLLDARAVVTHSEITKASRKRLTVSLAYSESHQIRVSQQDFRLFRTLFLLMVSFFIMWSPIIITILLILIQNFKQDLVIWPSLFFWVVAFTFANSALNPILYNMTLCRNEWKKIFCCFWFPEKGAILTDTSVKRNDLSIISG
From the text: The binding of an agonist (medium/long chain fatty acids or small molecule agonists) to the G-protein-coupled receptor GPR120 activates phospholipase C, leading to release of intracellular Ca^+2 through the generation of inositol 1,4,5-trisphosphate (InsP3 or IP3). GPR120 activation can also trigger intracellular signaling via recruitment of Beta-Arrestin. In the present method, agonist-induced activation of the human GPR120 receptor is monitored through the use of PathHunter CHO-K1 GPR120 Beta-Arrestin Cell Line engineered by DiscoveRx, as detailed below. The cell lines are designed to co-express both the ProLink/Enzyme Donor (PK)-tagged GPCR and the Enzyme […] (EA)-tagged Beta-Arrestin fusion proteins. Upon GPR120 receptor stimulation/activation, the EA-tagged Beta-Arrestin portion is translocated to the tagged receptor, where the two enzyme fragments are brought within close proximity. Under these conditions, these fragments can interact and form an active Beta-gal enzyme complex through Enzyme Fragment Complementation (EFC). […] This in vitro assay therefore serves to assess compound agonist activity of the GPR120.
In Procedure β-arrestin A, the cell used were PathHunter CHO-K1 GPR120 β-Arrestin Cell Line, expressing the long form of human GPR120 (Genbank accession number NM_181745), with 3000 cells per well.
The selected CHO-K1 GPR120 β-Arrestin cells were cultured in Ham's F12 media supplemented with 10% fetal bovine serum (FBS), 1% Glutamine, 1×p/s, 800 μg/mL G418 and 300 μg/mL Hygromycin B (for selection). Cell stocks were maintained and grown in a sub-confluent state using standard cell culture procedures. The day before the experiment, the cells were harvested with non-enzymatic cell dissociation buffer and re-suspended in complete growth media at the desired concentration. […] The seeded plates were incubated overnight at 37° C.
On the day of the experiment, the Assay Buffer containing (a) HBSS with Ca^++ and Mg^++, (b) 20 mM HEPES, and (c) 0.1% BSA stabilizer (pH 7.4) was prepared. The growth medium was gently removed from the cell plates and 20 μL of Assay Buffer added to each well. The plate was then incubated at 37° C. for 60 min. […] Five μL of compound dilution was then added to each well and the plate incubated at 37° C. for 90 min. The detection reagents were prepared according to the manufacture's instruction. Twelve μL of the detection reagents were added to each well and the plate incubated at room temperature for 60 min.
The % activity relative to the positive control was calculated using the following equation:
The Fitting Equation was: Y=Bottom+(Top-Bottom)/(1+10^((Log EC50−X)*HillSlope)), where X is the log of the concentration and Y is the response.

Human GPR120 short form = target: T2, Human GPR120 short form (Homo sapiens, UniProt Q5NUL3); assay: Human GPR120 calcium flux assay, Procedure Calcium A; format: cell-based; settings: HEK-293 cells, FLIPR, 2500 cells/well; read-out: GPR120 Ca2+ Assay A EC50
T2 construct: expressed in transfected cells
T2 sequence (Q5NUL3 1-361): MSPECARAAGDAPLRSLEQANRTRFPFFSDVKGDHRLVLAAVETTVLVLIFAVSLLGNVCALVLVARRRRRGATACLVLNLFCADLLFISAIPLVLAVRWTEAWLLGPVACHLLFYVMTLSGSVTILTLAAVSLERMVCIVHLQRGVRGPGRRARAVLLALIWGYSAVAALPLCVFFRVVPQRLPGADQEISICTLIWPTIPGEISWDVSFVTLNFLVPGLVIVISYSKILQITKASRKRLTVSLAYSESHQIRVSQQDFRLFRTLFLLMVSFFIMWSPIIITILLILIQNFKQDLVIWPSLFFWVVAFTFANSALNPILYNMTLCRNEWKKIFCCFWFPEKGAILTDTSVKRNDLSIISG
Description: These cells are first loaded with the Ca^+2 sensitive dye, Fluo-4 NR. Upon stimulation, intracellular released Ca^+2 can bind to the dye and alter its fluorescence intensity. This increase in fluorescence signal, and thus the flux in intracellular [Ca^2+], is detected and quantitated by fluorescence imaging using a FLIPR reader. The effect of the agonist is measured as a function of concentration and used to calculate an EC50 based upon a response curve.
In this procedure 2500 cells/well were employed.
A Human GPR120 clone (Genbank accession number NM_001195755.1) was placed into the pcDNA3.1 mammalian expression vector carrying the neomycin resistance gene. A stable mammalian cell was generated by placing the above clone into a HEK293 background. […] Cells were split 2 times a week to keep the cells in the log-phase growth.
In preparation for the assay, HEK cells stably transfected with Human GPR120 (2.5K cells per well in 25 uL growth medium) were seeded into 384-well plates and then incubated overnight (37° C., 5% CO2). The next day, the media was changed to 20 μL assay buffer and the cell starved for 1 h at 37° C. The dye loading solution (2× dye) was prepared using 10 mL assay buffer, 100 μL of 250 mM probenecid, 1 bottle of Component A, and 20 μl of dye in DMSO. Twenty μL of the 2× dye loading buffer was then added to each well. The plates were incubated at 37° C. for 30 min, then at room temperature for an additional 15 minutes, before performing the assay on FLIPR.
The assay was performed on a FLIPR plate reader using the following parameters. Baseline was read for 10 seconds at 1 sec intervals. The program was set to transfer 10 μL of ligand from compound plate to cell plate after baseline reading. Aspiration was executed at: 10 μL/sec speed, 4.6 μL height; Dispensing was executed at: 30 μL/sec speed, 45 μL height. After compound addition, each well was read for 300 sec, with measurements collected at 1 sec intervals.
The kinetic data from the FLIPR was based upon a 5 minute window for data collection. The fluorescence of each sample well was used for individual calculations of a normalized RFU value, which was defined as maximum response minus the minimum response. […] The Fitting Equation was: Y=Bottom+(Top-Bottom)/(1+10^((Log EC50−X)*HillSlope)), where X is the log of the concentration and Y is the response.

C57bl/6J Mice = assay: GPR120 C57bl6 mouse IPGTT; format: in vivo; settings: dosed 30 min prior to glucose IP 1.5 g/kg
Description: (§1) Male, C57bl/6J Mice were ordered in at 8 weeks of age from Jackson Labs. Individual mice weighed anywhere in the range of 25-30 grams on study day. The mice were fasted, with removal of food occurring at 7 am on the morning of the study. Animals were moved into the room at 10:00 am, to give them time to acclimate. Glucose (insulin syringes) was drawn up either the night before or the morning of the study. Glucose was dosed (IP) at 1.5 g/kg at 7.5 ml/kg (20% glucose straight TEKNOVA, 250 ml sterile bottle w/ catalogue number G0525). Test compounds were kept spinning and were only drawn into the syringes prior to study commencement. Animals were bled via tail snip to determine basal glucose levels prior to dosing of treatments. An Ascensia BREEZE Blood Glucose Monitoring System by Bayer (using unique 10-test disks) was used for determining glucose levels. The bleeds started at approximately 12:45 pm and dosing started, at 1-minute intervals, immediately after. All groups were dosed 30 minutes prior to glucose administration at a dose volume of 10 ml/kg (the dose volume was calculated separately for each individual animal). Thirty minutes after the first dose animals were bled again for a second baseline, or T=0, and immediately dosed with glucose via an i.p. injection. The exact dose volume for glucose was also calculated separately for each individual animal. Glucose measurements were taken at −30 min prior to compound dose, at t=0 (immediately prior to glucose dose), and at 15, 30, 45, 60, 90 min post glucose dose.
(§2) Glucose values were entered into an Excel sheet and graphed in GraphPad Prism. The following were calculated from Prism: Change from −30 to 0 BSLN Glucose, Raw Glucose AUC −30 to 90 min, Delta Glucose AUC −30 to 90 min, Raw Glucose AUC 0 to 90 min, Delta Glucose AUC 0 to 90 min.

C57b16 mouse = C57b16 mouse OGTT; format: in vivo; settings: dosed 30 min prior to glucose PO 3 g/kg
Description: as §1, §2
The assay design is the same as that described above for the C57b16 mouse IPGTT. The difference is that glucose was dosed PO at 3 g/kg, 7.5 ml/kg of 40% glucose.

SMILES | EC50 [1] | EC50 (Human GPR120 short form) | C57 IPGTT 3 mg/kg (C57bl/6J Mice) | C57 OGTT 3 mg/kg (C57b16 mouse) | C57 IPGTT 10 mg/kg (C57bl/6J Mice)
CCc1ccc(-c2nsc(C(F)(F)F)c2COc2c(F)cc([C@@H]3C[C@H]3CO)cc2F)cc1 [Cpd 219, [(1R,2R)-2-(4-{[3-(4-Ethylphenyl)-5-(trifluoromethyl)isothiazol-4-yl]methoxy}-3,5-difluorophenyl)cyclopropyl]methanol] | 210 nM | 690 nM |  |  | 
COc1ccc(-c2csc(C(F)(F)F)c2COc2c(F)cc(CCC(=O)O)cc2F)cn1 [Cpd 42, 3-(3,5-difluoro-4-((4-(6-methoxypyridin-3-yl)-2-(trifluoromethyl)thiophen-3-yl)methoxy)phenyl)propanoic acid] |  |  | −14 | −44 | 
CCc1ccc(-c2cc(F)sc2COc2c(F)cc(CCC(=O)O)cc2F)cc1 [Cpd 7] | 209 nM | 101 nM |  |  | 
OCCCc1cc(F)c(OCc2c(-c3ccc(Cl)cc3)nsc2C(F)(F)F)c(F)c1 [Cpd 100, 3-(4-[[3-(4-chlorophenyl)-5-(trifluoromethyl)-1,2-thiazol-4-yl]methoxy]-3,5-difluorophenyl)propan-1-ol] |  |  |  | −39 | −42
CCc1ccc(-c2snc(Cl)c2COc2ccc(CCC(=O)O)c(C)c2C)cc1 [Cpd 85, 3-(4-[[3-chloro-5-(4-ethylphenyl)-1,2-thiazol-4-yl]methoxy]-2,3-dimethylphenyl)propanoic acid] |  |  | −29 | −49 | −48
Cc1c(CCC(=O)O)ccc(OCc2c(-c3ccc(Cl)cc3)nsc2C(F)(F)F)c1C [Cpd 142, 3-(4-((3-(4-chlorophenyl)-5-(trifluoromethyl)isothiazol-4-yl)methoxy)-2,3-dimethylphenyl)propanoic acid] |  |  | −34 | −49 | −61
O=C(O)CCc1cc(F)c(OCc2c(-c3ccc(C4CC4)cc3)nsc2C(F)(F)F)c(F)c1 [Cpd 160, 3-(4-{[3-(4-Cyclopropylphenyl)-5-(trifluoromethyl)isothiazol-4-yl]methoxy}-3,5-difluorophenyl)propanoic acid] | 116 nM | 200 nM |  |  | 
COc1ccc(-c2csc(C(F)(F)F)c2COc2c(F)cc(CCCO)cc2F)cn1 [Cpd 38, 3-(3,5-difluoro-4-((4-(6-methoxypyridin-3-yl)-2-(trifluoromethyl)thiophen-3-yl)methoxy)phenyl)propan-1-ol] |  |  | −9 | −44 | 
